Laboratory results as given in patent EP0314400A1, “Therapeutically active condensed thiadiazinones” (SMITH KLINE & FRENCH LABORATORIES LIMITED, priority 1987, dated 1989).
pIC50: −log10 of the molar value.

Legend:
[1] = molecular target: PDE (type III) enzyme (obtained from cat heart homogenate); assay: Inhibition of phosphodiesterase (PDE) (type III); format: biochemical; conditions: 1 µM cAMP, read-out: IC₅₀
Description: Inhibition of Phosphodiesterase (PDE) (Type III)
Following the procedure described in EPA-247,724, IC₅₀ values (the concentration of inhibitor required for 50% inhibition of enzyme activity) were obtained by incubation of a PDE (type III) enzyme (obtained from cat heart homogenate) at 1 µM cAMP and a range of inhibitor concentrations from 0.1 x IC₅₀ to 100 x IC₅₀.

Anaesthetised Cats = assay: Cardiac stimulant activity in vivo (anaesthetised cats); conditions: anaesthetised cats pretreated with pempidine and propranolol, administered intravenously; for ED50: Felis catus, iv, read-out: ED₅₀ (dose to increase left ventricular dp/dt max by 50%)
Source text: Cardiac Stimulant Activity - In vivo (Anaesthetised Cats)
In anaesthetised cats pretreated with a ganglion blocker (pempidine) and propranolol, the compounds of the Examples cause sustained increases in left ventricular dp/dt max (this is an index of left ventricular contractility) when administered intravenously. The dose to increase left ventricular dp/dt max by 50% is given as the ED₅₀.

pIC50 [1] | Molecule | ED50 (Anaesthetised Cats) [µmol/kg] | ED₅₀ (dose to increase left ventricular dp/dt max by 50%) (Anaesthetised Cats) [µmol/kg]
6.18 | Cc1nccn1-c1ccc2c(c1)CC1SC(=O)NN=C21 (centres unmarked) [Example 1, 7-(2-Methyl-1H-imidazol-1-yl)-9,9a-dihydroindeno[1,2-e][1,3,4]thiadiazine-2-(3H)-one] | 0.72 | 
6.39 | Cc1cn(-c2ccc3c(c2)CC2SC(=O)NN=C32)cn1 (centres unmarked) [Example 2, 7-(4-Methyl-1H-imidazol-1-yl)-9,9a-dihydroindeno[1,2-e][1,3,4] thiadiazine-2-(3H)-one] | 0.46 | 
 | Amirone [reference compound] |  | 5.6
